In patent publication US10988523B2, “Modified lipidated Relaxin B chain peptides and their therapeutic use” (Sanofi, priority 2018, dated 2021):
*1 amine or outer side, *2 acyl side, *3 side chain or, on linkers, in order; H or OH if unused. Where a SMILES comes first, the peptide text is derived from it. Side-chain parts run from the residue outwards. [ ]: non-standard residue; d: D form. The star is where a group is joined. γGlu = O=C(O)[C@H](CCC(=O)[*:2])N[*:1]; Stearoyl = CCCCCCCCCCCCCCCCCC(=O)*; Palmitoyl = CCCCCCCCCCCCCCCC(=O)*; αMeK = C[C@](N)(CCCCN)C(=O)O; Nle = CCCC[C@H](N)C(=O)O; AEEA = NCCOCCOCC(=O)O; Aib = CC(C)(N)C(=O)O

Target: T1, RXFP1 (Homo sapiens, UniProt Q9HBX9)
T1 construct: OVCAR5 cells expressing endogenous RXFP1; endogenous in cells; host or cells: OVCAR5 cells
T1 sequence (Q9HBX9 1-757): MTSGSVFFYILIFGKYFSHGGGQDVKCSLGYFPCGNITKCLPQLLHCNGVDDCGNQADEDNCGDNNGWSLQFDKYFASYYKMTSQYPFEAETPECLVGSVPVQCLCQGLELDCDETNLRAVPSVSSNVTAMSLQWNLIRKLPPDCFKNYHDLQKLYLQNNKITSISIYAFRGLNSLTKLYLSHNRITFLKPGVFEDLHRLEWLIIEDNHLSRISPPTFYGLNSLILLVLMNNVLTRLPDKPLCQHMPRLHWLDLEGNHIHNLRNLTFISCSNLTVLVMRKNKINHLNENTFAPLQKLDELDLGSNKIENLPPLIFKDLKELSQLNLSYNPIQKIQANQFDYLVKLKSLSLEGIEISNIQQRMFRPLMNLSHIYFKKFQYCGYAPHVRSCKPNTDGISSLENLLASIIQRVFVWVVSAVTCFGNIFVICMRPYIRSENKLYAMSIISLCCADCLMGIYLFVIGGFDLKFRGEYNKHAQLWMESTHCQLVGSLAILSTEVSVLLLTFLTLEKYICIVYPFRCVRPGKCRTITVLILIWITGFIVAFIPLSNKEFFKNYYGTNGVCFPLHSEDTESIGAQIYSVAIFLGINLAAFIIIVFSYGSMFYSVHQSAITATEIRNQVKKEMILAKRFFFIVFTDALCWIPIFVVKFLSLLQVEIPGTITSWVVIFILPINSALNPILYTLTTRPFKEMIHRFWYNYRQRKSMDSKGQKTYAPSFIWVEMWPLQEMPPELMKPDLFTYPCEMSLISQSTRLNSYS
Experiment: OVCAR5 cAMP assay (HTRF), RXFP1 agonist activity
Type: cell-based
Settings: for Emax: OVCAR-5, maximal cAMP relative to H2-relaxin maximum (100%), read-out: EMax, OVCAR 5 cells (cAMP); for EC50: OVCAR5 cells, cAMP HTRF, read-out: EC50 (nM), OVCAR 5 cells (cAMP)
From the text: OVCAR5 cells expressing endogenous RXFP1 were used to test RXP1 agonist properties of peptides of the invention, and in particular of the peptides of sequence SEQ ID NO: 1-193.
Since RXFP1 is a Gs coupled GPCR, cAMP was used as readout of RXFP1 activation.
Isobutyl Methyl Xanthine (IBMX) was used to inhibit phosphodiesterase activity facilitating cAMP measurements. HTRF (Homogenous Time Resolved Fluorescence) technology was used to detect cAMP due to its great sensitivity.
In summary, OVCAR5 were grown in regular medium (RPMI) containing 10% fetal calf serum (FCS) and 1% antibiotics (penicillin/streptomycin).
Before the experiments, cells were detached with accutase and incubated for 40 minutes at 37° C. with 1 mM (3-isobutyl-1-methylxanthine) IBMX.
Cells were then distributed in 384 black well plates containing increasing concentrations of the different peptides in a fix volume of medium (without FCS).
After an incubation of 30 min at 37° C. in an humid incubator in 5% CO2, the reaction was stopped by adding a fixed volume of a solution containing a lysis buffer and cAMP-D2 (cAMP labeled with the dye d2) and the anti cAMP antibody linked to Europium and used for cAMP detection.
Readout of the experiment were performed on a fluorimeter allowing HTRF measurement. Activation curves were generated by plotting the intracellular value of cAMP versus log 10 of the compound concentration.
The 50% activation concentration (EC50) was calculated by nonlinear regression using the sigmoidal dose-response (variable slope) equation with Prism 5 software.
Emax % is determined as the maximal intracellular value of cAMP for test compound (upper limit of cAMP vs concentration curve) divided by the maximal intracellular value of cAMP for H2-relaxin determined in the same test occasion multiplied by 100. Emax %=100×[cAMPtest cpd]/[cAMPH2-RlX]

Row | Emax | EC50 | SMILES
1 | 91% |  | CCCCCCCCCCCCCCCC(=O)N[C@@H](CCC(=O)NCCCC[C@H](NC(=O)CC[C@H](NC(=O)CC[C@H](NC(=O)COCCOCCNC(=O)COCCOCCNC(=O)COCCOCCNC(=O)COCCOCCNC(=O)[C@H](CCCCNC(C)=O)NC(=O)[C@H](CCCCN)NC(=O)[C@H](CCCNC(=N)N)NC(=O)C(C)(C)NC(=O)[C@H](CO)NC(=O)[C@H](Cc1c[nH]c2ccccc12)NC(=O)[C@@H](NC(=O)[C@H](CO)NC(=O)[C@H](CCCC)NC(=O)CNC(=O)[C@H](CCC(=O)O)NC(=O)C(C)(C)NC(=O)C(C)(C)NC(=O)[C@@H](NC(=O)[C@H](CCC(N)=O)NC(=O)[C@H](C)NC(=O)[C@H](CCCNC(=N)N)NC(=O)[C@@H](NC(=O)[C@H](CCCCN)NC(=O)[C@H](CCC(=O)O)NC(=O)[C@H](CCCNC(=N)N)NC(=O)CNC(=O)[C@H](CCC(=O)O)NC(=O)[C@H](CC(C)C)NC(C)=O)C(C)C)[C@@H](C)CC)[C@@H](C)O)C(=O)O)C(=O)O)C(N)=O)C(=O)O [compound 121] (Ac-LEGREKVRAQI[Aib][Aib]EG[Nle]STWS[Aib]RKK(Ac)[AEEA][AEEA][AEEA][AEEA][γGlu][γGlu]K([γGlu-Palmitoyl])-NH2)
2 | 82% | 0.26 nM | CCCCCCCCCCCCCCCCCC(=O)N[C@@H](CCC(=O)N[C@@H](CCC(=O)N[C@@H](CCC(=O)NCCOCCOCC(=O)NCCOCCOCC(=O)NCCOCCOCC(=O)NCCOCCOCC(=O)NCCCC[C@H](NC(=O)[C@H](CCCCN)NC(=O)[C@H](CCCCN)NC(=O)[C@H](CCCNC(=N)N)NC(=O)C(C)(C)NC(=O)[C@H](CO)NC(=O)[C@H](Cc1c[nH]c2ccccc12)NC(=O)[C@@H](NC(=O)[C@H](CO)NC(=O)[C@H](CCCC)NC(=O)CNC(=O)[C@H](CCC(=O)O)NC(=O)C(C)(C)NC(=O)C(C)(C)NC(=O)[C@@H](NC(=O)[C@H](CCC(N)=O)NC(=O)[C@H](C)NC(=O)[C@H](CCCNC(=N)N)NC(=O)[C@@H](NC(=O)[C@H](CCCCN)NC(=O)[C@H](CCC(=O)O)NC(=O)[C@H](CCCNC(=N)N)NC(=O)CNC(=O)[C@H](CCC(=O)O)NC(=O)[C@H](CC(C)C)NC(C)=O)C(C)C)[C@@H](C)CC)[C@@H](C)O)C(N)=O)C(=O)O)C(=O)O)C(=O)O [compound 92] (Ac-LEGREKVRAQI[Aib][Aib]EG[Nle]STWS[Aib]RKKK([AEEA-AEEA-AEEA-AEEA-γGlu-γGlu-γGlu-Stearoyl])-NH2)
3 | 75% |  | CCCCCCCCCCCCCCCC(=O)N[C@@H](CCC(=O)N[C@@H](CCC(=O)N[C@@H](CCC(=O)NCCOCCOCC(=O)NCCOCCOCC(=O)NCCOCCOCC(=O)NCCCC[C@H](NC(=O)[C@H](CCCCNC(C)=O)NC(=O)[C@H](CCCCN)NC(=O)[C@H](CCCNC(=N)N)NC(=O)C(C)(C)NC(=O)[C@H](CO)NC(=O)[C@H](Cc1ccc(O)cc1)NC(=O)[C@@H](NC(=O)[C@H](CO)NC(=O)[C@H](CCC(N)=O)NC(=O)CNC(=O)[C@H](CCC(=O)O)NC(=O)C(C)(C)NC(=O)C(C)(C)NC(=O)[C@@H](NC(=O)[C@H](CCCCNC(C)=O)NC(=O)[C@H](C)NC(=O)[C@H](CCCNC(=N)N)NC(=O)[C@@H](NC(=O)[C@H](CCCCN)NC(=O)[C@H](CCC(=O)O)NC(=O)[C@H](CCCNC(=N)N)NC(=O)CNC(=O)[C@H](CCC(=O)O)NC(=O)[C@H](CC(C)C)NC(C)=O)C(C)C)[C@@H](C)CC)[C@@H](C)O)C(N)=O)C(=O)O)C(=O)O)C(=O)O [compound 44] (Ac-LEGREKVRAK(Ac)I[Aib][Aib]EGQSTYS[Aib]RKK(Ac)K([AEEA-AEEA-AEEA-γGlu-γGlu-γGlu-Palmitoyl])-NH2)
4 | 93% | 0.17 nM | CCCCCCCCCCCCCCCC(=O)N[C@@H](CCC(=O)N[C@@H](CCC(=O)N[C@@H](CCC(=O)N[C@@H](CCC(=O)NCCOCCOCC(=O)NCCOCCOCC(=O)NCCOCCOCC(=O)NCCOCCOCC(=O)NCCCC[C@H](NC(=O)[C@H](CCCCNC(C)=O)NC(=O)[C@H](C)NC(=O)[C@H](CCCNC(=N)N)NC(=O)[C@](C)(CCCCN)NC(=O)[C@H](CO)NC(=O)[C@H](Cc1ccccc1)NC(=O)[C@@H](NC(=O)[C@H](CO)NC(=O)[C@H](CCC(N)=O)NC(=O)CNC(=O)[C@H](CCC(=O)O)NC(=O)C(C)(C)NC(=O)C(C)(C)NC(=O)[C@@H](NC(=O)[C@H](CCCCNC(C)=O)NC(=O)[C@H](C)NC(=O)[C@H](CCCNC(=N)N)NC(=O)[C@@H](NC(=O)[C@H](CCCCN)NC(=O)[C@H](CCC(=O)O)NC(=O)[C@H](CCCNC(=N)N)NC(=O)CNC(=O)[C@H](CCC(=O)O)NC(=O)[C@H](CC(C)C)NC(C)=O)C(C)C)[C@@H](C)CC)[C@@H](C)O)C(N)=O)C(=O)O)C(=O)O)C(=O)O)C(=O)O [compound 191] (Ac-LEGREKVRAK(Ac)I[Aib][Aib]EGQSTFS[αMeK]RAK(Ac)K([AEEA-AEEA-AEEA-AEEA-γGlu-γGlu-γGlu-γGlu-Palmitoyl])-NH2)
5 | 80% |  | CCCCCCCCCCCCCCCC(=O)N[C@@H](CCC(=O)N[C@@H](CCC(=O)N[C@@H](CCC(=O)NCCCC[C@H](NC(=O)COCCOCCNC(=O)COCCOCCNC(=O)COCCOCCNC(=O)[C@H](CCCCNC(C)=O)NC(=O)[C@H](CCCCN)NC(=O)[C@H](CCCNC(=N)N)NC(=O)C(C)(C)NC(=O)[C@H](CO)NC(=O)[C@H](Cc1ccc(O)cc1)NC(=O)[C@@H](NC(=O)[C@H](CO)NC(=O)[C@H](CCC(N)=O)NC(=O)CNC(=O)[C@H](CCC(=O)O)NC(=O)C(C)(C)NC(=O)C(C)(C)NC(=O)[C@@H](NC(=O)[C@H](CCCCNC(C)=O)NC(=O)[C@H](C)NC(=O)[C@H](CCCNC(=N)N)NC(=O)[C@@H](NC(=O)[C@H](CCCCN)NC(=O)[C@H](CCC(=O)O)NC(=O)[C@H](CCCNC(=N)N)NC(=O)CNC(=O)[C@H](CCC(=O)O)NC(=O)[C@H](CC(C)C)NC(C)=O)C(C)C)[C@@H](C)CC)[C@@H](C)O)C(N)=O)C(=O)O)C(=O)O)C(=O)O [compound 179] (Ac-LEGREKVRAK(Ac)I[Aib][Aib]EGQSTYS[Aib]RKK(Ac)[AEEA][AEEA][AEEA]K([γGlu-γGlu-γGlu-Palmitoyl])-NH2)
6 | 84% |  | CCCCCCCCCCCCCCCCCC(=O)N[C@@H](CCC(=O)N[C@@H](CCC(=O)N[C@@H](CCC(=O)N[C@@H](CCC(=O)NCCOCCOCC(=O)NCCOCCOCC(=O)NCCOCCOCC(=O)NCCOCCOCC(=O)NCCCC[C@H](NC(=O)[C@H](CCCCNC(C)=O)NC(=O)[C@H](CCCCN)NC(=O)[C@H](CCCNC(=N)N)NC(=O)C(C)(C)NC(=O)[C@H](CO)NC(=O)[C@H](Cc1c[nH]c2ccccc12)NC(=O)[C@@H](NC(=O)[C@H](CO)NC(=O)[C@H](CCC(N)=O)NC(=O)CNC(=O)[C@H](CCC(=O)O)NC(=O)C(C)(C)NC(=O)C(C)(C)NC(=O)[C@@H](NC(=O)[C@H](CCCCNC(C)=O)NC(=O)[C@H](C)NC(=O)[C@H](CCCNC(=N)N)NC(=O)[C@@H](NC(=O)[C@H](CCCCN)NC(=O)[C@H](CCC(=O)O)NC(=O)[C@H](CCCNC(=N)N)NC(=O)CNC(=O)[C@H](CCC(=O)O)NC(=O)[C@H](CC(C)C)NC(C)=O)C(C)C)[C@@H](C)CC)[C@@H](C)O)C(N)=O)C(=O)O)C(=O)O)C(=O)O)C(=O)O [compound 180] (Ac-LEGREKVRAK(Ac)I[Aib][Aib]EGQSTWS[Aib]RKK(Ac)K([AEEA-AEEA-AEEA-AEEA-γGlu-γGlu-γGlu-γGlu-Stearoyl])-NH2)
